# Data reported in patent US8017350B2, “Glimepiride- and insulin-induced glycosylphosphatidylinositol-specific phospholipase C regulation” (Sanofi-Aventis Deutschland GmbH, priority 2004, dated 2011).
# How the values were obtained:
# [1] = tested on: pp59Lyn and IRS-1 in rat adipocytes; test: Tyrosine phosphorylation of pp59Lyn and IRS-1; assay type: cell-based; conditions: GPI-2350; IRS-1 tyrosine phosphorylation and glucose transport
# Description: Polypeptides separated by SDS-PAGE were transferred to polyvinylidene difluoride membranes using the semidry procedure as described in “Müller, G. et al., (2001) Mol. Cell. Biol. 21: 4553-4567”. Washed membranes were incubated with anti-caveolin-1 (1:2000), anti-pp59^Lyn (1:1250), anti-aP (1:500), anti-5′-Nuc (1:750) and anti-IRS-1 (1:2000) antibodies for 4 h at 15° C. Washed membranes were incubated with horseradish peroxidase-coupled secondary goat anti-mouse (1:2000) or goat anti-rabbit IgG (1:4000) antibodies. Labeled proteins were visualized by enhanced chemiluminescence.
# FIG. 7: Effect of GPI-2350 on the glimepiride/insulin-induced activation of signaling proteins. Isolated rat adipocytes were treated (5 min, 37° C.) without or with GPI-2350 (Panels A, 50 μM; Panels B, increasing conc.) and then incubated (120 min, 37° C.) in the absence or presence of insulin (10 nM) or glimepiride (20 μM). IRS-1 and pp59^Lyn were immunoprecipitated from the defatted postnuclear infranatant (see Materials and Methods) and solubilized combined hc/lcDIGs, respectively, and then immunoblotted for phosphotyrosine. […]
# PI-PLC (B. cereus) = molecular target: T1, PI-PLC (B. cereus) (Bacillus cereus, UniProt P14262); test: PI-PLC (B. cereus) assay, AChE substrate, TX-114 partitioning; assay type: biochemical
# T1 construct: purchased SigmalAldrich (Deisenhofen, Germany)
# Description: GPI-PLD (rat serum) was assayed according to “Hari et al. (1997) Biochim. Biophys. Acta 1355: 293-302” by incubation with 10 μl of human placental aP solution (100 U/ml in 10 mM Hepes/NaOH, pH 7.0, 150 mM NaCl) in 100 μl of 200 mM Tris/maleate (pH 7.0) and 1% Nonidet P-40 for 10 min at 37° C. and subsequent termination of the reaction by addition of 0.4 ml of ice-cold stop buffer (10 mM Hepes/NaOH, pH 7.0, 150 mM NaCl, 0.1 mM MgCl2 and 0.01 mM zinc acetate). GPI-PLC (T. brucei) was assayed as described in “Mensa-Wilmot et al. (1995) Methods Enzymol. 250: 641-655” by incubation with 5 μl of human placental aP solution (see above) in 50 μl of 50 mM Tris/HCl (pH 8.0), 0.25% Nonidet P-40 and 5 mM EDTA for 30 min at 37° C. and subsequent termination of the reaction by addition of 0.45 ml of stop buffer. PI-PLC (B. cereus) and adipocyte GPI-PLC (5-25 μg plasma membranes or hc/lcDIGs) were assayed by incubation with 10 μl of bovine erythrocyte acetylcholinesterase (AChE) solution (12 U/ml in 10 mM Tris/HCl, pH 7.4, 144 mM NaCl, 0.1% TX-100) in 100 μl of 20 mM Hepes/KOH (pH 7.8), 144 mM NaCl, 0.1% TX-100, 0.2 mM MgCl2 for 1 h at 25° C. and subsequent termination by adding 5 μl of glacial acetic acid and then 0.4 ml of 10 mM Tris/HCl (pH 7.4), 144 mM NaCl. Each reaction mixture was subjected to TX-114 partitioning (see below).
# Pelleted hc/lcDIGs (10-50 μg protein) or (G)PI-PLC reaction mixtures (0.5 ml) were separated into amphiphilic and hydrophilic proteins using partitioning between TX-114-enriched and depleted phases according to “Bordier, C., (1981) J. Biol, Chem. […]” by suspending in 1 ml of ice-cold TX-114 (1%), 25 mM Tris/HCl (pH 7.4), 144 mM NaCl or mixing with 0.5 ml of ice-cold TX-114 (2%), respectively. After incubation for 1 h on ice, the mixture was layered onto a cushion of 0.4 ml of 0.25 M sucrose and 25 mM Tris/HCl (pH 7.4) on ice. Phase separation was induced by warming up to 37° C. and subsequent centrifugation (10,000×g, 1 min). After re-extraction of the lower TX-114-enriched phase, aliquots of the pooled upper TX-114-depleted phase were measured for 5′-Nuc, aP and AChE activity or precipitated (15 polyethylene glycol 4000) for SDS-PAGE analysis.
# Table 1: GPI-PLC of hcDIGs from rat adipocytes, GPI-PLC from T. brucei and PI-PLC from B. cereus were incubated with solubilized and partially purified bovine erythrocyte AChE or human placental aP in the absence or presence of increasing concentrations (0.05 μM-1 mM) of the inhibitors indicated under appropriate conditions (see Materials and Methods). Cleavage rate was calculated from the amount of hydrophilic AChE and aP activity recovered with the TX-114-depleted phase upon TX-114 partitioning. Means+SD from at least 3 independent incubations with partitioning/enzyme assays in quadruplicate are given. n.a., not applicable.
# Purified (G)PI-PLC/D from B. cereus, rat serum and T. brucei as well as total plasma membranes (PM) and hc/lcDIGs prepared from isolated rat adipocytes were incubated (10 min, 30° C.) with increasing concentrations of GPI-2350 and then assayed for amphiphilic-to-hydrophilic conversion of AChE and aP by TX-114 partitioning (see Materials and Methods). The lipolytic activity was calculated as % of the control reaction in the absence of GPI-2350 (set at 100%). Means+SD of at least 4 independent incubations with AChE and aP activity measurements in triplicate each are given.
# T1 sequence (P14262 32-329 limits assumed): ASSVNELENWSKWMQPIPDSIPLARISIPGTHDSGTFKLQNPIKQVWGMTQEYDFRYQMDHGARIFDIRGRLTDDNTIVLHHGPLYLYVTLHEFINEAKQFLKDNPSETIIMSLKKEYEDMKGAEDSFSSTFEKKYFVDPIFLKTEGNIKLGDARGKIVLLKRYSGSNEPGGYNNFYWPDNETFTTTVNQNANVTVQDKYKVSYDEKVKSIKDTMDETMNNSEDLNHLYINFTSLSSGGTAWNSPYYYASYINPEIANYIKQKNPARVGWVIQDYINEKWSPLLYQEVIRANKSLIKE
smiles,measurement,setting,value
"CCCCCCCCCCCCP1(=O)O[C@@H]2[C@H](O)[C@@H](O)[C@H](O)[C@@H](O)[C@@H]2O1 (some centres unmarked) [GPI-2350, myo-inositol-1,2-cyclo-dodecylphosphonic acid]",effect on stimulation by other insulin-mimetic stimuli,[1],neither IRS-1 tyrosine phosphorylation nor glucose transport (Tab. 3) by these stimuli was affected significantly
same,IC50,"PI-PLC (B. cereus); IC50, Table 1, inhibitor 0.05 μM-1 mM",10 to 20 µM
same,IC50,"PI-PLC (B. cereus); apparent IC50, FIG. 2",10 µM
same,inhibition at 1000 µM,PI-PLC (B. cereus); read-out: inhibition % at 1 mM,75%
same,reversal of half-maximal inhibition,PI-PLC (B. cereus); upon 10-fold dilution with excess of fresh GPI-protein substrate,completely reversed
